We go through 14 compounds from patent US10364263B2, “Cyclic phosphates and cyclic phosphoramidates for the treatment of neurologic disorders” (Retrophin, Inc., priority 2015, dated 2019).

Where two headings read alike, the source gives them in different places.

For data set [1], the system named is PANK2 silenced human neuroblastoma IMR32 cells (PANK2−/−). Kind of data set: Coenzyme A assay in PANK2 silenced cells (LC-MS quantification of free CoA). Format: cell-based. The settings on record: compound added twice (24 h + 24 h), relative to 0.1% DMSO controls. Summed up: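 PANK2 shRNA-silenced IMR32 neuroblastoma cells were treated with compound (0.1% DMSO) for 24 h, then re-dosed with fresh compound for a further 24 h at 37 °C. TFA extracts of 1×10^6 cells were assayed for free CoA by LC-MS/MS (MRM 768.1→261.6/136.1). Results are given as fold change versus DMSO controls.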

Data set [2] in a line: Stability in human hepatocytes. Format: in vitro ADME. As to the method: (§1) Stability in hepatocytes for select compounds disclosed in the application was evaluated in two species (mouse and human) according to the following procedure. Compounds and positive control samples were dissolved in 100% DMSO at 5 mM. Cryopreserved hepatocytes were thawed and resuspended in Hepatocyte Basal Medium (HBM-Lonza CC-3199) supplemented with CC-4182 (complete hepatocyte culture medium). Test compounds were diluted into cell suspension (1 million cells/ml) from the stock solutions to have a test compound concentration of 5 μM (0.1% DMSO). Incubation was performed in 24-well plates, at 37° C. in a DUBNOFF water bath, under low shaking. Each compound was tested at 6 time points, in duplicates (0, 15, 30, 60, 120 and 240 min). At each time point, an aliquot of 120 μl was taken and transferred to a 96-well deep plate. The reaction was stopped with the addition of one volume of 100% acetonitrile plus 0.1% formic acid and the appropriate internal standard. Then samples were centrifuged at 1100×g for 30 min at +4° C. and supernatants were transferred to a new 96-deepwell plate. Samples were evaporated under N2 and reconstituted in H2O/ACN 0.1% Formic Acid (98:2). Analysis was performed without a calibration curve (Acquity UPLC-Waters; Sciex API4000). Time 0 was obtained adding acetonitrile before addition of the test compound. […] The half-life (t1/2) expressed in hours is derived using Equation 1 as shown in Example 64.

A short description of data set [3]: Stability in mouse plasma. Format: in vitro ADME. Summed up: (§2)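 Test compound at 3 μM (0.1% DMSO) was incubated in mouse or human plasma at 37 °C and sampled in duplicate at 0, 10, 20, 30, 40 and 60 min. Reactions were stopped with acetonitrile/formic acid containing internal standard. Remaining parent was measured by UPLC-MS/MS without a calibration curve.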
Data set [4] is described as follows: Stability in human plasma. Conditions: 37° C. Format: in vitro ADME. Summed up: as §2
Data set [5] is described as follows: Stability in mouse hepatocytes. Format: in vitro ADME. As to the method: as §1
Where [6] appears, read: t1/2, Human Hepatocytes, Diastereoisomer A.
Setting [7] is: t1/2, Human Hepatocytes, Diastereoisomer B.
Setting [8] is: Diastereoisomer A (upfield shift in 31P NMR), 5 μM, 1 million cells/ml, 37° C., human hepatocytes, read-out: t1/2, Human Hepatocytes, Diastereoisomer A (converted).
Setting [9] is: Diastereoisomer B, 5 μM, 1 million cells/ml, 37° C., human hepatocytes, read-out: t1/2, Human Hepatocytes, Diastereoisomer B (converted).
[10] abbreviates: human, plasma, Diastereoisomer A (upfield shift in 31P NMR), read-out: t1/2, Human Plasma, Diastereoisomer A (converted).
Where [11] appears, read: human, plasma, Diastereoisomer B, read-out: t1/2, Human Plasma, Diastereoisomer B (converted).
Setting [12] is: t1/2, Mouse Hepatocytes, Diastereoisomer A.
Where [13] appears, read: t1/2, Mouse Hepatocytes, Diastereoisomer B.

For `COC(=O)CCNC(=O)[C@@H]1OP(=O)(OCOC(=O)c2ccns2)OCC1(C)C` (stereo partly drawn) [Compound No. 2-140, (((4R)-4-((3-methoxy-3-oxopropyl)carbamoyl)-5,5-dimethyl-2-oxido-1,3,2-dioxaphosphinan-2-yl)oxy)methyl isothiazole-5-carboxylate], the “PANK2−/− CoA (Fold Increase): fold increase in Coenzyme A (CoA) levels relative to controls” value in data set [1] is reported as 37.02 Fold Increase. Besides, the half-life at 5 µM in data set [2] (setting [6]) and in data set [2] (setting [7]) was below 15 min throughout.

In the case of `COC(=O)CCNC(=O)[C@@H]1OP(=O)(NCC(=O)OCc2ccccc2)OCC1(C)C` (stereo partly drawn) [compound 118, methyl 3-((4R)-2-((2-(benzyloxy)-2-oxoethyl)amino)-5,5-dimethyl-2-oxido-1,3,2-dioxaphosphinane-4-carboxamido) propanoate], in data set [1], the “PANK2−/− CoA (Fold Increase): fold increase in Coenzyme A (CoA) levels relative to controls” value amounted to 2.96 Fold Increase. Further, the half-life at 3 µM in data set [3] (Diastereoisomer A (upfield shift in 31P NMR), 3 μM, 37° C., mouse plasma, read-out: t1/2, Mouse Plasma, Diastereoisomer A) is below 9.6 min; in data set [4] (Diastereoisomer A (upfield shift in 31P NMR), read-out: t1/2, Human Plasma, Diastereoisomer A (converted)), above 60 min. In data set [3] (Diastereoisomer B, 3 μM, 37° C., mouse plasma), the “t1/2, Mouse Plasma, Diastereoisomer B” value is below 9.6 min. Moreover, the “t1/2, Human Plasma, Diastereoisomer B” value in data set [4] (Diastereoisomer B, 3 μM) is above 60 min. Besides, the half-life at 5 µM in data set [5] (Diastereoisomer A (upfield shift in 31P NMR), 5 μM, 1 million cells/ml, 37° C., mouse hepatocytes, read-out: t1/2, Mouse Hepatocytes, Diastereoisomer A (converted)) is below 15 min; in data set [5] (Diastereoisomer B, 5 μM, 1 million cells/ml, 37° C., mouse hepatocytes, read-out: t1/2, Mouse Hepatocytes, Diastereoisomer B (converted)), below 15 min. Besides, the half-life is 25.8 min in data set [2] (setting [8]) and below 15 min in data set [2] (setting [9]).

Consider `CCC(CC)C(=O)OCOP1(=O)OCC(C)(C)[C@H](C(=O)NCCC(=O)OC)O1` (stereo partly drawn) [Compound No. 67, (((4R)-4-((3-methoxy-3-oxopropyl)carbamoyl)-5,5-dimethyl-2-oxido-1,3,2-dioxaphosphinan-2-yl)oxy)methyl 2-ethylbutanoate], for which the “PANK2−/− CoA (Fold Increase): fold increase in Coenzyme A (CoA) levels relative to controls” value in data set [1] is on record as 122.4 Fold Increase. In addition, the half-life at 3 µM in data set [3] (mouse, plasma) is below 9.6 min; in data set [4] (setting [10]), above 60 min; in data set [4] (setting [11]), below 9.6 min. The “t1/2, Mouse Plasma, Diastereoisomer B” value in data set [3] (mouse, plasma, 3 µM) was below 9.6 min. For the same compound, the half-life at 5 µM in data set [5] (setting [12]), in data set [5] (setting [13]), in data set [2] (setting [6]) and in data set [2] (setting [7]) was below 15 min throughout.

Consider `COC(=O)CCNC(=O)[C@@H]1OP(=O)(OCOC(C)=O)OCC1(C)C` (stereo partly drawn) [Compound No. 68, Methyl 3-((4R)-2-(acetoxymethoxy)-5,5-dimethyl-2-oxido-1,3,2-dioxaphosphinane-4-carboxamido)propanoate], for which, in data set [1], the “PANK2−/− CoA (Fold Increase): fold increase in Coenzyme A (CoA) levels relative to controls” value was 125.97 Fold Increase. Moreover, the half-life at 5 µM in data set [5] (setting [12]), in data set [5] (setting [13]), in data set [2] (setting [6]) and in data set [2] (setting [7]) was below 15 min each time.

`COC(=O)CCNC(=O)[C@@H]1O[P@@](=O)(Oc2ccc(C(F)(F)F)cc2)OCC1(C)C` [2-119, methyl 3-((2S,4R)-5,5-dimethyl-2-oxido-2-(4-(trifluoromethyl)phenoxy)-1,3,2-dioxaphosphinane-4-carboxamido)propanoate]: in data set [1], the “PANK2−/− CoA (Fold Increase): fold increase in Coenzyme A (CoA) levels relative to controls” value was determined as 1.67 Fold Increase. Also, the half-life at 5 µM in data set [2] (setting [8]) is 30.6 min.

`COC(=O)[C@H](C)N[P@@]1(=O)OCC(C)(C)[C@H](C(=O)NCCC(=O)OCc2cn(C)cn2)O1` [compound 22, methyl ((2R,4R)-5,5-dimethyl-4-((3-((1-methyl-1H-imidazol-4-yl)methoxy)-3-oxopropyl)carbamoyl)-2-oxido-1,3,2-dioxaphosphinan-2-yl)-L-alaninate]: the half-life at 5 µM in data set [5] (setting [12]) is 37.2 min; in data set [2] (setting [6]), above 240 min.

In the case of `COC(=O)CCNC(=O)[C@@H]1O[P@@](=O)(OCOC(=O)NCCOC(=O)[C@@H](NC(=O)OCc2ccccc2)C(C)C)OCC1(C)C` (single isomer, unassigned) [2-160], the “PANK2−/− CoA (Fold Increase): fold increase in Coenzyme A (CoA) levels relative to controls” value in data set [1] is 7.99 Fold Increase. In addition, the results for the half-life at 5 µM in data set [5] (setting [12]) and in data set [2] (setting [6]) were below 15 min and 36.6 min, respectively.

Regarding `COC(=O)CCNC(=O)[C@@H]1OP(=O)(Oc2ccc(F)cc2)OCC1(C)C` (stereo partly drawn) [2-118, methyl 3-((4R)-2-(4-fluorophenoxy)-5,5-dimethyl-2-oxido-1,3,2-dioxaphosphinane-4-carboxamido)propanoate], in data set [1], the “PANK2−/− CoA (Fold Increase): fold increase in Coenzyme A (CoA) levels relative to controls” value worked out at 1.38 Fold Increase. For the same compound, the figures for the half-life at 5 µM in data set [2] (setting [8]) and in data set [2] (setting [9]) were 33 min and 36 min, respectively.

Turning to `COC(=O)CCNC(=O)[C@@H]1O[P@](=O)(OCOC(=O)NCCOC(=O)[C@@H](NC(=O)OCc2ccccc2)C(C)C)OCC1(C)C` (single isomer, unassigned) [2-161], the “PANK2−/− CoA (Fold Increase): fold increase in Coenzyme A (CoA) levels relative to controls” value in data set [1] is 71.14 Fold Increase. Besides, the half-life at 5 µM in data set [5] (setting [12]) is below 15 min; in data set [2] (setting [6]), 25.8 min.

As to `COC(=O)CCNC(=O)[C@@H]1OP(=O)(OCOC(=O)c2scnc2C)OCC1(C)C` (stereo partly drawn) [Compound No. 2-139, (((4R)-4-((3-methoxy-3-oxopropyl)carbamoyl)-5,5-dimethyl-2-oxido-1,3,2-dioxaphosphinan-2-yl)oxy)methyl 4-methylthiazole-5-carboxylate], the “PANK2−/− CoA (Fold Increase): fold increase in Coenzyme A (CoA) levels relative to controls” value in data set [1] is on record as 44.21 Fold Increase. In addition, the values for the half-life at 5 µM in data set [2] (setting [6]) and in data set [2] (setting [7]) were 30.6 min and 15.6 min, respectively.

Turning to `COC(=O)CCNC(=O)[C@@H]1OP(=O)(OCOC(=O)NCCSC(=O)C(C)(C)C)OCC1(C)C` (stereo partly drawn) [2-143, methyl 3-((4R)-5,5-dimethyl-2-oxido-2-((((2-(pivaloylthio)ethyl)carbamoyl)oxy)methoxy)-1,3,2-dioxaphosphinane-4-carboxamido)propanoate], the “PANK2−/− CoA (Fold Increase): fold increase in Coenzyme A (CoA) levels relative to controls” value in data set [1] was 1.39 Fold Increase. In addition, the half-life at 5 µM in data set [2] (setting [6]) is 25.2 min; in data set [2] (setting [7]) it was 19.2 min.

For the compound `COC(=O)[C@H](C)NP1(=O)OCC(C)(C)[C@H](C(=O)NCCC(=O)OCc2cc(C)on2)O1` (stereo partly drawn) [compound 21, (2S)-methyl 2-(((4R)-5,5-dimethyl-4-((3-((5-methylisoxazol-3-yl)methoxy)-3-oxopropyl)carbamoyl)-2-oxido-1,3,2-dioxaphosphinan-2-yl)amino)propanoate], the half-life at 5 µM in data set [5] (setting [12]) is below 15 min; in data set [5] (setting [13]) it was below 15 min; in data set [2] (setting [6]) it was 70.8 min; in data set [2] (setting [7]) it was 40.2 min.

Turning to `COC(=O)CCNC(=O)[C@@H]1OP(=O)(OCOC(=O)C2(C(N)=O)CC2)OCC1(C)C` (stereo partly drawn) [Compound No. 83, (((4R)-4-((3-methoxy-3-oxopropyl)carbamoyl)-5,5-dimethyl-2-oxido-1,3,2-dioxaphosphinan-2-yl)oxy)methyl 1-carbamoylcyclopropane-1-carboxylate], the “PANK2−/− CoA (Fold Increase): fold increase in Coenzyme A (CoA) levels relative to controls” value in data set [1] is 12.02 Fold Increase. In addition, the half-life at 3 µM in data set [3] (mouse, plasma) was below 9.6 min; in data set [4] (setting [10]), above 60 min; in data set [4] (setting [11]) it was below 9.6 min. Besides, the “t1/2, Mouse Plasma, Diastereoisomer B” value in data set [3] (mouse, plasma, 3 µM) was below 9.6 min.

With `COC(=O)CCNC(=O)[C@@H]1OP(=O)(N[C@@H](C)C(=O)OCCc2scnc2C)OCC1(C)C` (stereo partly drawn) [compound 31, methyl 3-((4R)-5,5-dimethyl-2-(((S)-1-(2-(4-methylthiazol-5-yl)ethoxy)-1-oxopropan-2-yl)amino)-2-oxido-1,3,2-dioxaphosphinane-4-carboxamido)propanoate], the “PANK2−/− CoA (Fold Increase): fold increase in Coenzyme A (CoA) levels relative to controls” value in data set [1] is reported as 1.1 Fold Increase. In addition, the half-life at 3 µM in data set [3] (mouse, plasma) is below 9.6 min; in data set [4] (setting [10]), above 60 min; in data set [4] (setting [11]) it was above 60 min. Also, the “t1/2, Mouse Plasma, Diastereoisomer B” value in data set [3] (mouse, plasma, 3 µM) was below 9.6 min.
